Results published in patent US20220016035A1, “Extended Release Highly Loaded Drug Compositions” (Lubrizol Advanced Materials, Inc., priority 2017, published 2022).

Key:
[1] = Forced degradation testing of Levetiracetam blends (Table 8), Levetiracetam acid and total impurities by HPLC; type: physicochemical; details: blend, 12 Day exposure, 60 C./75% RH
[2] = Forced degradation testing of Levetiracetam tablets and powder blends, 12 days, impurities by HPLC; type: physicochemical; details: Levetiracetam examples, forced degradation conditions
Method: 1.4 g of anhydrous di basic sodium phosphate in 1 liter of water. Adjusted to pH 3.5 with Orth phosphoric acid. Filter buffer with 0.45 um Nylon membrane filter paper. A mixture of 95 volumes of buffer solution and 5 volumes of Acetonitrile. To each 1 Liter of the mixture, add 1 g of sodium 1-hexanesulfonate monohydrate. […] Cool and make up to the volume with water. (Standard Stock Solution 2500 ppm). Next, Dilute 5 mL of standard solution a to 50 mL with water (Standard Solution (a) 250 ppm), further Dilute 5 mL of standard solution (a) to 100 mL with water (Standard Solution 12.5 ppm). […] Cool to room temperature and add 25 mL of acetonitrile to volumetric flask and make up the volume with water and centrifuge for 15 min @ 3500 RPM. filter the solution with 0.45 μm PVDF Millipore membrane syringe filter by discarding first 5 mL of filtrate. Dilute 5 mL of filtrate to 10 mL with water (2500 ppm). This group of examples is subjected to forced degradation testing conditions, where each example is formed into a tablet and then stored at 60 to 80 degrees C. and 75% relative humidity for a period of 5 or 12 days. At the end of the 5 days or 12 days each tablet is tested for its pH level and percent impurities. […]

Compound | Levetiracetam Acid [1] | WT % IMPURITY [2]
CC[C@@H](C(N)=O)N1CCCC1=O [EX 34, Levetiracetam] | 0.01 | 
CC[C@@H](C(N)=O)N1CCCC1=O [EX 31, Levetiracetam] |  | 0.02 WT %
